Among the data in US20230322767A1, “ARYL SUBSTITUTED PYRROLO-PYRIDINONES AND THERAPEUTIC USES THEREOF” (Bayer Aktiengesellschaft, priority 2020, published 2023) are IC50 values, retold here.

One assay deals with CSNK1A1 (Homo sapiens (Human), UniProt P48729). Put plainly: CSNK1A1 Assay 2 (ADP-Glo, 1 μM ATP). It counts as biochemical. The conditions noted are these: median, read-out: CSNK1A1 Assay 2 IC50 [mol/l] (median). The method, then: CSNK1A1-inhibitory activity of compounds of the present invention in presence of 1 μM adenosine-tri-phosphate (ATP) was quantified employing the CSNK1A1 assay as described in the following paragraphs. In essence, the enzyme activity is measured by quantification of the adenosine-di-phosphate (ADP), which is generated as a co-product of the enzyme reaction, via the “ADP-Glo™ Kinase Assay” kit from the company Promega. This detection system works as follows: In a first step the ATP not consumed in the kinase reaction is quantitatively converted to cAMP employing an adenylate cyclase (“ADP-Glo-reagent”), then the adenylate cyclase is stopped and the ADP generated in the kinase reaction converted to ATP which generates in a luciferase-based reaction a glow-luminescence signal (“Kinase Detection Reagent”).
As substrate for the kinase reaction the biotinylated peptide biotin-Ahx-KRRRAL-pS-VASLPGL (C-terminus in amide form) was used which can be purchased e.g. from the company Biosyntan (Berlin-Buch, Germany).
For the assay 50 nl of a 100 fold concentrated solution of the test compound in DMSO was pipetted into a white 1536-well microtiter plate (Greiner Bio-One, Frickenhausen, Germany), 2 μL of a solution of CSNK1A1 in aqueous assay buffer [50 mM HEPES pH 7.5, 10% (v/v) glycerol, 10 mM MgCl2, 50 mM NaCl, 1 mM dithiothreitol, 0.01% (w/v) bovine serum albumin, 0.01% (v/v) Triton X-100] were added and the mixture was incubated for 15 min at 22° C. to allow pre-binding of the test compounds to the enzyme before the start of the kinase reaction. […] The concentration of CSNK1A1 was adjusted depending of the activity of the enzyme lot and was chosen appropriate to have the assay in the linear range, a typical concentrations are about 0.0375 ng/μL. The reaction was stopped by the addition of 2.5 μL of “ADP-Glo-reagent” (1:1.5 fold diluted with water) and the resulting mixture was incubated at 22° C. for 1 h to convert the ATP not consumed in the kinase reaction completely […]. Subsequently 2.5 μL of the “kinase detection reagent” (1.2 fold more concentrated than recommended by the producer) were added, the resulting mixture was incubated at 22° C. for 1 h and then the luminescence measured with a suitable measurement instrument (e.g. Viewlux™ from Perkin-Elmer). The amount of emitted light was taken as a measure for the amount of ADP generated and thereby for the activity of the CSNK1A1.
A general note: ADP-Glo first removes unused ATP, then detects ADP through luciferase.

The next assay has as its target CSNK1D (Homo sapiens (Human), UniProt P48730). The assay is described as follows: CSNK1D Assay (ADP-Glo, 1 μM ATP). In kind it is biochemical. The conditions noted are these: median, read-out: CSNK1D IC50 [mol/l] (median). The method, then:
CSNK1D-inhibitory activity of compounds of the present invention in presence of 1 μM adenosine-tri-phosphate (ATP) was quantified employing the CSNK1 D assay as described in the following paragraphs. In essence, the enzyme activity is measured by quantification of the adenosine-di-phosphate (ADP), which is generated as a co-product of the enzyme reaction, via the “ADP-Glo™ Kinase Assay” kit from the company Promega. This detection system works as follows: In a first step the ATP not consumed in the kinase reaction is quantitatively converted to cAMP employing an adenylate cyclase (“ADP-Glo-reagent”), then the adenylate cyclase is stopped and the ADP generated in the kinase reaction converted to ATP which generates in a luciferase-based reaction a glow-luminescence signal (“Kinase Detection Reagent”).
As substrate for the kinase reaction the biotinylated peptide Btn-Ahx-[…] (C-terminus in amide form) was used which can be purchased e.g. from the company Biosyntan (Berlin-Buch, Germany).
For the assay 50 nl of a 100 fold concentrated solution of the test compound in DMSO was pipetted into a white 1536-well microtiter plate (Greiner Bio-One, Frickenhausen, Germany), 2 μL of a solution of CSNK1D in aqueous assay buffer [50 mM HEPES pH 7.5, 10% (v/v) glycerol, 10 mM MgCl2, 50 mM NaCl, 1 mM dithiothreitol, 0.01% (w/v) bovine serum albumin, 0.01% (v/v) Triton X-100] were added and the mixture was incubated for 15 min at 22° C. to allow pre-binding of the test compounds to the enzyme before the start of the kinase reaction. […] The concentration of CSNK1D was adjusted depending of the activity of the enzyme lot and was chosen appropriate to have the assay in the linear range, a typical concentration is about 0.5 ng/μL. The reaction was stopped by the addition of 2.5 μL of “ADP-Glo-reagent” (1:1.5 fold diluted with water) and the resulting mixture was incubated at 22° C. for 1 h to convert the ATP not consumed in the kinase reaction completely […]. Subsequently 2.5 μL of the “kinase detection reagent” (1.2 fold more concentrated than recommended by the producer) were added, the resulting mixture was incubated at 22° C. for 1 h and then the luminescence measured with a suitable measurement instrument (e.g. Viewlux™ from Perkin-Elmer). The amount of emitted light was taken as a measure for the amount of ADP generated and thereby for the activity of the CSNK1D.

CSNK1A1, sequence (P48729 whole entry): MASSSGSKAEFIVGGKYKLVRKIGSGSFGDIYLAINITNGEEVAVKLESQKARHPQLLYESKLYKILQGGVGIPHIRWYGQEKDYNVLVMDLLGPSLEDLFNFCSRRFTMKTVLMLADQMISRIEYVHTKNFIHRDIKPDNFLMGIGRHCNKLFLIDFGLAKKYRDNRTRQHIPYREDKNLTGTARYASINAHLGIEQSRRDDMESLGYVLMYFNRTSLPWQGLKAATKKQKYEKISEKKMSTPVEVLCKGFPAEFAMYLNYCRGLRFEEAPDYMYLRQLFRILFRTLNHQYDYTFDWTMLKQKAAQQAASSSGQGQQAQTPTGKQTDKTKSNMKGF
CSNK1D, sequence (P48730 whole entry): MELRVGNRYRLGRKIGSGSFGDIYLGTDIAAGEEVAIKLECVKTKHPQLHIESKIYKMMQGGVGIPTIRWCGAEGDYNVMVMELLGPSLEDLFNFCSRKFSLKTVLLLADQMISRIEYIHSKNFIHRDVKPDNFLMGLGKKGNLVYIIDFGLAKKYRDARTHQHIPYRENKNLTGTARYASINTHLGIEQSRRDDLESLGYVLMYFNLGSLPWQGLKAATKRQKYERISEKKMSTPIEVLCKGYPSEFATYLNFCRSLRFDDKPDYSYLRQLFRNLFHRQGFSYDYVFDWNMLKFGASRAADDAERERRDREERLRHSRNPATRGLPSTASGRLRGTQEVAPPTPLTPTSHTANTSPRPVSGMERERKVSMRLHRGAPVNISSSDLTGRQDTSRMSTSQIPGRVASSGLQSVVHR

On to `Cn1cc(CC(F)(F)F)c2[nH]c(-c3ccnc(NC(=O)C(CC(F)F)c4ccc(F)cc4)c3)c(-c3ccccc3)c2c1=O` (single isomer, unassigned; (-)) [Example 19, (−)-4,4-difluoro-2-(4-fluorophenyl)-N-{4-[5-methyl-4-oxo-3-phenyl-7-(2,2,2-trifluoroethyl)-4,5-dihydro-1H-pyrrolo[3,2-c]pyridin-2-yl]pyridin-2-yl}butanamide], for which the IC50 at CSNK1A1 amounted to 22 nM; at CSNK1D, 14 nM.

In the case of `CC(C(=O)Nc1cc(-c2[nH]c3c(c2-c2ccccc2)C(=O)N(C)CC3CC2CC2)ccn1)c1ccc(F)cc1` (stereo not drawn) [Example 57, N-{4-[7-(cyclopropylmethyl)-5-methyl-4-oxo-3-phenyl-4,5,6,7-tetrahydro-1H-pyrrolo[3,2-c]pyridin-2-yl]pyridin-2-yl}-2-(4-fluorophenyl)propanamide], the IC50 turned out to be 4.5 nM on CSNK1A1 and 2.9 nM on CSNK1D.

`Cc1cn(C)c(=O)c2c(-c3ccc(F)cc3)c(-c3ccnc(NC(=O)C(C)c4ccc(F)cc4)c3)[nH]c12` (single isomer, unassigned; (-)) [Example 31, (−)-2-(4-fluorophenyl)-N-{4-[3-(4-fluorophenyl)-5,7-dimethyl-4-oxo-4,5-dihydro-1H-pyrrolo[3,2-c]pyridin-2-yl]pyridin-2-yl}propanamide]: the results for the IC50 at CSNK1A1 and at CSNK1D were 53 nM and 14 nM, respectively.

In the case of `CC(C(=O)Nc1cc(-c2[nH]c3c(CC(F)(F)F)cn(C)c(=O)c3c2-c2ccc(F)cc2)ccn1)c1ccc(F)cc1` (single isomer, unassigned; (-)) [Example 23, (−)-2-(4-fluorophenyl)-N-{4-[3-(4-fluorophenyl)-5-methyl-4-oxo-7-(2,2,2-trifluoroethyl)-4,5-dihydro-1H-pyrrolo[3,2-c]pyridin-2-yl]pyridin-2-yl}propanamide], the IC50 at CSNK1A1 amounted to 85 nM; at CSNK1D it was 37 nM.

As to `CC(C(=O)Nc1cc(-c2[nH]c3c(c2-c2ccccc2)C(=O)NCC3(C)C)ccn1)c1ccc(F)cc1` (single isomer, unassigned) [Example 48, N-[4-(7,7-dimethyl-4-oxo-3-phenyl-4,5,6,7-tetrahydro-1H-pyrrolo[3,2-c]pyridin-2-yl)pyridin-2-yl]-2-(4-fluorophenyl)propanamide], the IC50 at CSNK1A1 amounted to 1.8 nM; on CSNK1D, 2.9 nM.

Regarding `CC(C(=O)Nc1cc(-c2[nH]c3c(CC4CC4)cn(C)c(=O)c3c2-c2ccccc2)ccn1)c1ccc(F)cc1` (racemic) [Example 58, N-{4-[7-(cyclopropylmethyl)-5-methyl-4-oxo-3-phenyl-4,5-dihydro-1H-pyrrolo[3,2-c]pyridin-2-yl]pyridin-2-yl}-2-(4-fluorophenyl)propanamide], the IC50 on CSNK1A1 was 5.2 nM; on CSNK1D, 4 nM.

Take `CC(C(=O)Nc1cc(-c2[nH]c3c(CC(F)(F)F)cn(C)c(=O)c3c2-c2ccc(F)cc2)ccn1)c1ccc(F)cc1` (racemic) [Example 22, 2-(4-fluorophenyl)-N-{4-[3-(4-fluorophenyl)-5-methyl-4-oxo-7-(2,2,2-trifluoroethyl)-4,5-dihydro-1H-pyrrolo[3,2-c]pyridin-2-yl]pyridin-2-yl}propanamide]: the IC50 was 6.2 nM at CSNK1A1 and 3.2 nM at CSNK1D.

Turning to `CN1CC(CC2CC2)c2[nH]c(-c3ccnc(NC(=O)Cc4ccc(F)cc4)c3)c(-c3ccccc3)c2C1=O` (racemic) [Example 55, N-{4-[7-(cyclopropylmethyl)-5-methyl-4-oxo-3-phenyl-4,5,6,7-tetrahydro-1H-pyrrolo[3,2-c]pyridin-2-yl]pyridin-2-yl}-2-(4-fluorophenyl)acetamide], the IC50 on CSNK1A1 stood at 2 nM; on CSNK1D, 2.2 nM.

Turning to `CN1C(=O)c2c([nH]c(-c3ccnc(NC(=O)C(CC(F)F)c4ccc(F)cc4)c3)c2-c2ccccc2)CC12CCC2` (racemic) [Example 49, 4,4-difluoro-2-(4-fluorophenyl)-N-[4-(5′-methyl-4′-oxo-3′-phenyl-1′,4′,5′,7′-tetrahydrospiro[cyclobutane-1,6′-pyrrolo[3,2-c]pyridin]-2′-yl)pyridin-2-yl]butanamide], the values for the IC50 at CSNK1A1 and at CSNK1D were 4.6 nM and 4.5 nM, respectively.

For the compound `CC(C(=O)Nc1cc(-c2[nH]c3c(c2-c2ccc(F)cc2)C(=O)N(C)CC3CC(F)(F)F)ccn1)c1ccc(F)cc1` (stereo not drawn) [Example 21, 2-(4-fluorophenyl)-N-{4-[3-(4-fluorophenyl)-5-methyl-4-oxo-7-(2,2,2-trifluoroethyl)-4,5,6,7-tetrahydro-1H-pyrrolo[3,2-c]pyridin-2-yl]pyridin-2-yl}propanamide], the IC50 on CSNK1A1 was determined as 8.6 nM; at CSNK1D, 6.6 nM.

As to `CC1(C)CNC(=O)c2c1[nH]c(-c1ccnc(NC(=O)C(CC(F)F)c3ccc(F)cc3)c1)c2-c1ccccc1` (racemic) [Example 43, N-[4-(7,7-dimethyl-4-oxo-3-phenyl-4,5,6,7-tetrahydro-1H-pyrrolo[3,2-c]pyridin-2-yl)pyridin-2-yl]-4,4-difluoro-2-(4-fluorophenyl)butanamide], the results for the IC50 on CSNK1A1 and on CSNK1D were 2.6 nM and 2.7 nM, respectively.

On to `CC(C(=O)Nc1cc(-c2[nH]c3c(c2-c2ccccc2)C(=O)NCC3(C)C)ccn1)c1ccc(F)cc1` (racemic) [Example 46, N-[4-(7,7-dimethyl-4-oxo-3-phenyl-4,5,6,7-tetrahydro-1H-pyrrolo[3,2-c]pyridin-2-yl)pyridin-2-yl]-2-(4-fluorophenyl)propanamide], for which the IC50 at CSNK1A1 is 2.7 nM; at CSNK1D, 3.3 nM.

With `CN1CC(CC(F)(F)F)c2[nH]c(-c3ccnc(NC(=O)C(CC(F)F)c4ccc(F)cc4)c3)c(-c3ccccc3)c2C1=O` (stereo not drawn) [Example 17, 4,4-difluoro-2-(4-fluorophenyl)-N-{4-[5-methyl-4-oxo-3-phenyl-7-(2,2,2-trifluoroethyl)-4,5,6,7-tetrahydro-1H-pyrrolo[3,2-c]pyridin-2-yl]pyridin-2-yl}butanamide], the IC50 at CSNK1A1 is 4.7 nM; on CSNK1D it was 4.3 nM.

For `CC(C(=O)Nc1cc(-c2[nH]c3c(c2-c2ccccc2)C(=O)N(C)CC3CC(F)(F)F)ccn1)c1ccc(F)cc1` (stereo not drawn) [Example 13, 2-(4-fluorophenyl)-N-{4-[5-methyl-4-oxo-3-phenyl-7-(2,2,2-trifluoroethyl)-4,5,6,7-tetrahydro-1H-pyrrolo[3,2-c]pyridin-2-yl]pyridin-2-yl}propanamide], the IC50 worked out at 3.5 nM at CSNK1A1 and 3.9 nM on CSNK1D.

As for `CC1c2[nH]c(-c3ccnc(NC(=O)C(CC(F)F)c4ccc(F)cc4)c3)c(-c3ccccc3)c2C(=O)N(C)C1C` (stereo not drawn) [Example 41, 4,4-difluoro-2-(4-fluorophenyl)-N-{4-[5,6,7-trimethyl-4-oxo-3-phenyl-4,5,6,7-tetrahydro-1H-pyrrolo[3,2-c]pyridin-2-yl]pyridin-2-yl}butanamide], the IC50 came to 5.7 nM on CSNK1A1 and 6.1 nM at CSNK1D.
